In PMC8596843, “Platinum Cyclooctadiene Complexes with Activity against Gram‐positive Bacteria” (Chemmedchem, 2021):

Legend:
[1] = tested on: Staphylococcus aureus ATCC 43300 (MRSA); assay: microbe, parasite or virus in culture; assay type: cell-based; conditions: for MIC Sa: CO‐ADD screening
Description: (§1) All compounds submitted to CO‐ADD are initially screened against five bacterial strains (Staphylococcus aureus (MRSA), E. coli, Klebsiella pneumoniae, Pseudomonas aeruginosa, Acinetobacter baumannii) and two fungal strains (Candida albicans, Cryptococcus neoformans) at a single concentration (32 μg/mL or 20 μM) performed as a high‐throughput primary screening.[[11], [17a]] Any compounds that show significant growth inhibition against any of the tested strains at this step are then evaluated in a dose‐response assay against these same strains. […]
(§2) Smiles: C1C=CCCC(=CC1)C1=CCCC=CCC1.C[Pt]C.C[Pt]C […]
(§3) ATCC strains were sourced from the American Type Culture Collection and NRS strains from NARSA (Network on Antimicrobial Resistance in Staphylococcus aureus) via BEI Resources (www.beiresources.org), with clinical MSSA and MRSA isolates from Prof Graeme Nimmo, Queensland […]
(§4) Health Central Pathology. […]
(§5) Antibacterial minimum inhibitory concentration (MIC) assay
(§6) Compound Assay Plate Preparation: Compounds were dissolved in DMSO at 10mM (CO-ADD screening) or 4 mM (follow up screening) and were plated in a 2-fold dose response from 20 to 0.156 µM or 200 to 0.006 µM respectively, with a maximum of 0.5% or 1% DMSO, final in the assay […]
(§7) plated in a 2-fold dose response from 200 to 0.006 µM, with a maximum of 1 % DMSO, final in the assay concentration. (in-house screening)
(§8) For all the bacterial assays, each strain was cultured in Cation-adjusted Mueller Hinton broth (CAMHB; Bacto Laboratories 212322) at 37 °C overnight. A sample of each culture was then diluted 40-fold in fresh CAMHB and incubated at 37 °C for 1.5–3 h. The resultant mid-log phase cultures were diluted with CAMHB (CFU mL−1 measured by OD600), then added to each well of the compound-containing plates (384-well non-binding surface (NBS) plates; Corning CLS3640), giving a cell density of 5 × 10^5 CFU mL−1 and a total volume of 50 μL. Plates were covered and incubated at 37 °C for 18 h without shaking. Inhibition of bacterial growth was determined measuring absorbance at 600 nm (OD600), using media only as negative control and bacteria without inhibitors as positive control. MIC values were determined as the lowest concentration at which the growth was inhibited at ≥80%. Colistin sulfate (Sigma C4461) and vancomycin HCl (Sigma 861987) were used as internal controls on each plate for Gram-negative and Gram-positive bacteria, respectively. […]

[2] = tested on: Acinetobacter baumannii ATCC 19606; assay: Antibacterial MIC assay; assay type: cell-based; conditions: CO‐ADD screening
Description: as §1, §2, §3, §4, §5, §6, §7, §8

[3] = tested on: Escherichia coli ATCC 25922; assay: Antibacterial MIC assay; assay type: cell-based; conditions: CO‐ADD screening
Description: as §1, §2, §3, §4, §5, §6, §7, §8

[4] = tested on: Pseudomonas aeruginosa ATCC 27853; assay: Antibacterial MIC assay; assay type: cell-based; conditions: CO‐ADD screening
Description: as §1, §2, §3, §4, §5, §6, §7, §8

[5] = tested on: Klebsiella pneumoniae ATCC 700603 (ESBL SHV‐18)
Description: as §1, §2, §3, §4, §5, §6, §7, §8

[6] = tested on: Candida albicans ATCC 90028; assay: Antifungal MIC (CO-ADD screening); assay type: cell-based
Description: (§9) InChIKey: PHIWIZAHOBWKFJ-HPCBIOCFSA-N
(§10) Health Central Pathology. Candida albicans (ATCC 90028, NCCLS 11), Cryptococcus neoformans
as §5
(§11) concentration. (in-house screening)
(§12) Bacto Laboratories 212322) at 37 °C overnight.

[7] = tested on: Cryptococcus neoformans H99 ATCC 208821; assay: Antifungal MIC (CO-ADD screening); assay type: cell-based
Description: as §9, §10, §5, §11, §12

[8] = tested on: HEK-293 ATCC CRL-1573 human embryonic kidney cells; assay type: cell-based
Description: As part of the CO‐ADD screening, all compounds that show any activity against a microbial strain are evaluated for their cytotoxicity against human embryonic kidney cells (HEK‐293) and for haemolysis against human red blood cells. None of the compounds tested for cytotoxicity (Pt1‐9 and Pd1) caused any significant cell death up to concentrations of 100 μM. […] We have also observed higher IC50 values for the methylated complexes Pt3 and Pt4 against HeLa cells in previous work.[16] […]
(§13) inhibitors as positive control.
(§14) Tamoxifen (Sigma T5648) was used
(§15) as internal control on each plate.
in a Neubauer haemocytometer. […]

human red blood cells = assay: Haemolysis assay; assay type: cell-based; conditions: for Haemolysis HC10: concentration inducing 10 % haemolysis; for Haemolysis HC50: concentration inducing 50 % haemolysis
Description: As part of the CO‐ADD screening, all compounds that show any activity against a microbial strain are evaluated for their cytotoxicity against human embryonic kidney cells (HEK‐293) and for haemolysis against human red blood cells. None of the compounds tested for cytotoxicity (Pt1‐9 and Pd1) caused any significant cell death up to concentrations of 100 μM. […] We have also observed higher IC50 values for the methylated complexes Pt3 and Pt4 against HeLa cells in previous work.[16]
(§16) The resultant mid-log phase cultures were diluted
(§17) Gram-negative and Gram-positive bacteria, respectively.
(§18) final concentration range of 0.8 – 100 µM.
as §13, §14, §15
in a Neubauer haemocytometer.
incubated for 1 h at 37 °C, without shaking.
HC10 and HC50 (concentration at which 10%
for top, bottom and slope using Prism 8. […]

[9] = tested on: Staphylococcus aureus ATCC 25923, MSSA; assay: Antibacterial MIC assay, Gram-positive panel; assay type: cell-based; conditions: Table S1 panel; n=4
Source text: (§19) Bis(dimethyl-η4)-((1Z,1'E,5Z,5'E)-(1,1'-bi(cyclooctadiene))diplatinum(II) (Pt14) Smiles: C1C=CCCC(=CC1)C1=CCCC=CCC1.C[Pt]C.C[Pt]C
as §9
(§20) Link to selected data that was repeated to approve the identity of the compounds: https://dx.doi.org/10.14272/PHIWIZAHOBWKFJ-HPCBIOCFSA-N.1
as §3, §4, §5, §6, §7, §8

[10] = tested on: Staphylococcus aureus VRS 1, VRSA (VanA); assay: Antibacterial MIC assay, Gram-positive panel; assay type: cell-based; conditions: Table S1 panel; n=4
Source text: as §19, §9, §20, §3, §4, §5, §6, §7, §8

[11] = tested on: Enterococcus faecalis ATCC 29212, control strain; assay: Antibacterial MIC assay, Gram-positive panel; assay type: cell-based; conditions: Table S1 panel; n=4
Description: as §2, §3, §4, §5, §6, §7, §8

[12] = tested on: Enterococcus faecalis Clinical Isolate, VRE (VanB); assay: Antibacterial MIC assay, Gram-positive panel; assay type: cell-based; conditions: Table S1 panel; n=4
Description: as §2, §3, §4, §5, §6, §7, §8

[13] = tested on: Enterococcus faecium ATCC 35667, type strain; assay: Antibacterial MIC assay, Gram-positive panel; assay type: cell-based; conditions: Table S1 panel; n=4
Description: as §2, §3, §4, §5, §6, §7, §8

[14] = tested on: Enterococcus faecium ATCC 51559, MDR, VRE (VanA); assay: Antibacterial MIC assay, Gram-positive panel; assay type: cell-based; conditions: Table S1 panel; n=2
Description: as §2, §3, §4, §5, §6, §7, §8

[15] = tested on: Enterococcus faecium Clinical Isolate, VRE (VanA); assay: Antibacterial MIC assay, Gram-positive panel; assay type: cell-based; conditions: Table S1 panel; n=4
Description: as §2, §3, §4, §5, §6, §7, §8

[16] = tested on: Staphylococcus epidermidis ATCC 14990, type strain; assay: Antibacterial MIC assay, Gram-positive panel; assay type: cell-based; conditions: Table S1 panel; n=4
Description: as §2, §3, §4, §5, §6, §7, §8

[17] = tested on: Staphylococcus epidermidis NRS 60, VISE; assay: Antibacterial MIC assay, Gram-positive panel; assay type: cell-based; conditions: Table S1 panel; n=4
Description: as §2, §3, §4, §5, §6, §7, §8

[18] = tested on: B. subtilis ATCC 6051 type strain; assay: MIC in the presence of human serum (serum reversal); assay type: cell-based, Bacillus subtilis; conditions: 10% serum
Source text: (§21) To obtain some initial insight into the apparent disparity between in vitro and in vivo results, we repeated the MIC experiments against four selected Gram‐positive strains in the presence of 10 % or 50 % human serum (Table S3). Pt1 and Pt2 maintained some antibacterial activity against B. subtilis in the presence of 10 % serum, but a complete loss of activity was observed against MRSA and GISA (50 % serum), and VRE (10 % serum). […] Systemic administration is therefore unlikely to be a suitable administration route for this class of compounds unless an alternative formulation that can prevent serum binding (e. g. by lipid or nanoparticle encapsulation) can be found. […] Further in vivo studies should therefore focus on more suitable disease models. […]
as §5, §11, §12, §16, §17, §18
(§22) inhibitors as positive control. […]

[19] = tested on: S. aureus ATCC 43300 MRSA; assay: as above; assay type: cell-based, Staphylococcus aureus; conditions: 50% serum
Source text: as §21, §5, §11, §12, §16, §17, §18, §22

S. aureus NRS 17 GISA = assay: as above; assay type: cell-based, Staphylococcus aureus; conditions: 50% serum
Source text: as §21, §5, §11, §12, §16, §17, §18, §22

[20] = tested on: E. faecium ATCC 51559 MDR, VRE; assay: as above; assay type: cell-based, Enterococcus faecium; conditions: 10% serum
Source text: as §21, §5, §11, §12, §16, §17, §18, §22

HT‐29 colon carcinoma = tested on: HT‐29 colon carcinoma; set-up: method as in earlier work; conditions: ref 14a, read-out: IC50 cytotoxicity; cited from earlier work
[21] = tested on: MCF‐7 breast cancer cells; set-up: method as in earlier work; conditions: ref 14a, read-out: IC50 cytotoxicity; cited from earlier work
[22] = tested on: Staphylococcus aureus NRS 17, GISA; assay: Antibacterial MIC assay, Gram-positive panel; assay type: cell-based; conditions: Table S1 panel; n=2
Description: as §2, §3, §4, §5, §6, §7, §8

[23] = tested on: E. coli lpxC (non‐efficient lipid A production mutant); assay: MIC against E. coli membrane mutants; assay type: cell-based, Escherichia coli; conditions: Table S2
Description: as §5, §11, §12, §16, §17, §18, §22

[24] = tested on: E. coli tolC (efflux pump deficient); assay: MIC against E. coli membrane mutants; assay type: cell-based, Escherichia coli; conditions: Table S2
Description: as §5, §11, §12, §16, §17, §18, §22

Row | SMILES | MIC Sa [1] | MIC Ab [2] | MIC Ec [3] | MIC Pa [4] | MIC Kp [5] | MIC Ca [6] | MIC Cn [7] | CC50 [8] | Haemolysis HC10 (human red blood cells) | Haemolysis HC50 (human red blood cells) | MIC [9] | MIC [10] | MIC [11] | MIC [12] | MIC [13] | MIC [14] | MIC in the presence of human serum [18] | MIC in the presence of human serum [19] | MIC in the presence of human serum (S. aureus NRS 17 GISA) | MIC in the presence of human serum [20] | further results
1 | C1=CCCC=CCC1.[CH3][Pt][Cl] [Pt4] | >20 µM | >20 µM | >20 µM | >20 µM | >20 µM | 5 to 10 µM | 10 to 20 µM | > 100 µM | 10.23 µM | 52.11 µM | 100 µM | > 200 µM | > 200 µM | > 200 µM | > 200 µM | 25 µM | > 200 µM | > 200 µM | > 200 µM | > 200 µM | MIC ([1]; Table S1 panel, n=2): 6.25 µM; MIC [15]: 200 µM; MIC [16]: 50 µM; MIC [17]: 100 µM; IC50 (HT‐29 colon carcinoma): 8.3 ± 3 µM; IC50 [21]: 11.2 ± 1.4 µM
2 | CCC1=CCCC=CCC1.[CH3][Pt][C](F)(F)C(F)(F)C(F)(F)C(F)(F)C(F)(F)C(F)(F)C(F)(F)C(F)(F)F [Pt9] | >20 µM | >20 µM | >20 µM | >20 µM | >20 µM | >20 µM | 1.25 µM | > 100 µM | >100 µM | >100 µM | – | – | – | – | – | 100 µM | > 200 µM | > 200 µM | > 200 µM | > 200 µM | MIC [22]: 100 µM; MIC E. coli lpxC [23]: > 200 µM; MIC E. coli TolC [24]: > 200 µM
3 | C1=CCCC=CCC1.COc1cc[c]([Pt][CH3])cc1 [Pt5] | >20 µM | >20 µM | >20 µM | >20 µM | >20 µM | 10 µM | 20 µM | > 100 µM | 88.43 µM | >100 µM | 100 µM | 200 µM | > 200 µM | > 200 µM | > 200 µM | 200 µM | > 200 µM | > 200 µM | > 200 µM | > 200 µM | MIC [15]: 200 µM; MIC [22]: 100 µM; MIC [16]: 50 µM; MIC [17]: 50 µM; MIC E. coli lpxC [23]: > 200 µM; MIC E. coli TolC [24]: > 200 µM
